In brackets after ≈: the same amount, converted by molar mass. Several values for one entry are separate records, joined by “and”; a condition that tells them apart may be missing. Equal values may be shown once. Read-outs that look alike come from different tables or passages of the source.
Assays:
human erythrocytes [1] = experiment: Hemolytic activity against human erythrocytes (HC50 / MHC, microtiter dilution); assay type: cell-based; conditions: V681 analog studies
[2] = tested on: Methicillin Resistant Staphylococcus aureus (MRSA) and Staphylococcus aureus; assay type: cell-based; conditions: Mueller Hinton medium; for MIC: 24 hours at 37° C.
Outline: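 MICs by microtiter broth dilution in triplicate determinations, mostly LB no-salt medium (sometimes MH or BHI), final inoculum 5×10^5 CFU/ml (1×10^5 CFU/ml in the MH variant), 24 h at 37 °C. MIC is the lowest peptide concentration inhibiting growth; tested on 20 clinical MRSA and S. aureus isolates.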

human erythrocytes [3] = experiment: Hemolytic activity against human erythrocytes (HC50 / MHC, microtiter dilution); assay type: cell-based
Protocol: (§1) Hemoglobin release was determined spectrophotometrically at 570 nm. The hemolytic activity was determined as the peptide concentration that caused 50% hemolysis of erythrocytes after 18 h (HC50). […] HC50 was determined by a plot of peptide concentration versus percent lysis.

[4] = as above; assay type: cell-based; conditions: 1% human erythrocytes, pH 7.4, read-out: Hemolytic activity HC50
Protocol: as §1

[5] = RP-HPLC retention as measure of overall peptide hydrophobicity; assay type: physicochemical; conditions: pH 2, room temperature
Protocol: Crude and purified peptides were analyzed on an Agilent 1100 series liquid chromatograph (Little Falls, Del.). Runs were performed on a Zorbax 300 SB-C8 column (150×2.1 mm I.D.; 5 μm particle size, 300 Å pore size) from Agilent Technologies using linear AB gradient (1% acetonitrile/min) and a flow rate of 0.25 ml/min, where eluant A was 0.2% aqueous TFA, pH 2 and eluant B was 0.2% TFA in acetonitrile.

Pseudomonas aeruginosa = conditions: for MIC PAO 1: 37° C., 24 h, strain PAO1; for MIC GM (geometric mean of the MIC values): six P. aeruginosa strains; for MIC CP 204: strain CP204; for MIC M 2: strain M2; for MIC PA 14: strain PA14; for MIC PAK: strain PAK; for MIC WR 5: strain WR5
Acinetobacter baumannii = assay type: cell-based
Outline: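 Microtiter broth dilution in triplicate, mainly LB no-salt medium (MH or BHI in some cases), peptides serially diluted, final inoculum 5×10^5 CFU/ml (1×10^5 CFU/ml in MH variant); 24 h at 37° C. MIC is the lowest peptide concentration inhibiting growth, given in micromolar against clinical isolates.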

[6] = human erythrocytes, concentration of peptide that results in 50% hemolysis after 18 hours at 37° C.
[7] = human red blood cells, 50% hemolysis after 18 h

CC[C@@H](C)[C@@H](NC(=O)[C@@H](C)NC(=O)[C@@H](CCCCN)NC(=O)[C@@H](CC(C)C)NC(=O)[C@@H](C)NC(=O)[C@H](NC(=O)[C@@H](Cc1c[nH]cn1)NC(=O)[C@@H](CC(C)C)NC(=O)[C@H](NC(=O)[C@H](NC(=O)[C@@H](CCCCN)NC(=O)[C@@H](CCCCN)NC(=O)[C@@H](C)NC(=O)[C@@H](CO)NC(=O)[C@@H](CCCCN)NC(=O)[C@@H](Cc1ccccc1)NC(=O)[C@H](NC(=O)[C@@H](CCCCN)NC(=O)[C@@H](CC(C)C)NC(=O)[C@@H](Cc1ccccc1)NC(=O)[C@@H](CO)NC(=O)[C@@H](CCCCN)NC(=O)[C@@H](Cc1c[nH]c2ccccc12)NC(=O)[C@@H](CCCCN)NC(C)=O)[C@H](C)O)[C@H](C)O)C(C)C)[C@H](C)O)C(=O)N[C@H](CO)C(=O)N[C@H](CO)C(N)=O [Peptide D1, Ac-KWKSFLKTFKSAKKTVLHTALKAISS-amide]
Hemolytic activity, minimal hemolytic concentration (MHC) (human erythrocytes [1]): non-hemolytic
MIC ([2]; S. aureus strain 1): 23.9 µM (≈ 71.5 µg/mL)
MIC ([2]; S. aureus strain 2, R (MRSA resistant to Oxacillin)): 12.0 µM (≈ 35.9 µg/mL)
MIC ([2]; S. aureus strain 3): 23.9 µM (≈ 71.5 µg/mL)
MIC ([2]; S. aureus strain 4, R (MRSA resistant to Oxacillin)): 23.9 µM (≈ 71.5 µg/mL)
MIC ([2]; S. aureus strain 5): 23.9 µM (≈ 71.5 µg/mL)
MIC ([2]; S. aureus strain 6): 23.9 µM (≈ 71.5 µg/mL)
MIC ([2]; S. aureus strain 7, R (MRSA resistant to Oxacillin)): 3.0 µM (≈ 8.97 µg/mL)
MIC ([2]; S. aureus strain 8): 95.5 µM (≈ 286 µg/mL)
MIC ([2]; S. aureus strain 9, R (MRSA resistant to Oxacillin)): 12.0 µM (≈ 35.9 µg/mL)
MIC ([2]; S. aureus strain 10): 12.0 µM (≈ 35.9 µg/mL)
MIC ([2]; S. aureus strain 11, R (MRSA resistant to Oxacillin)): 12.0 µM (≈ 35.9 µg/mL)
MIC ([2]; S. aureus strain 12, R (MRSA resistant to Oxacillin)): 6.0 µM (≈ 17.9 µg/mL)
MIC ([2]; S. aureus strain 13): 1.5 µM (≈ 4.49 µg/mL)
MIC ([2]; S. aureus strain 14, R (MRSA resistant to Oxacillin)): 6.0 µM (≈ 17.9 µg/mL)
MIC ([2]; S. aureus strain 15): 47.7 µM (≈ 143 µg/mL)
MIC ([2]; S. aureus strain 16, R (MRSA resistant to Oxacillin)): 23.9 µM (≈ 71.5 µg/mL)
MIC ([2]; S. aureus strain 17): 23.9 µM (≈ 71.5 µg/mL)
MIC ([2]; S. aureus strain 18): 23.9 µM (≈ 71.5 µg/mL)
MIC ([2]; S. aureus strain 19): 47.7 µM (≈ 143 µg/mL)
MIC ([2]; S. aureus strain 20): 12.0 µM (≈ 35.9 µg/mL)
MIC GM (geometric mean) ([2]; geometric mean of the MIC values from 20 different isolates of MRSA/SA): 15.7 µM (≈ 47 µg/mL)
Hemolytic activity HC50 (human erythrocytes [3]; 50% hemolysis after 18 hours at 37° C.): 141 µM
Hemolytic activity HC50 (human erythrocytes [3]; [6]): 140.9 µM
Hemolytic activity HC50 (human erythrocytes [3]; [7]): 421.5 µg/mL
Hemolytic activity HC50 (human erythrocytes [3]; human red blood cells, 18 h): 140.9 µM
HC50 at 18 h [4, 6]: 141 µM
HC50 at 18 h [4, 7]: 422 µg/mL
Hydrophobicity (retention time in RP-HPLC) [5]: 76.8 min and 76.75 min
MIC PAO 1 (Pseudomonas aeruginosa; Brain Heart Infusion medium): 31.3 µg/mL (≈ 10.5 µM)
MIC GM (geometric mean of the MIC values) (Pseudomonas aeruginosa; Brain Heart Infusion medium): 31.2 µg/mL
MIC CP 204 (Pseudomonas aeruginosa; Brain Heart Infusion medium): 62.5 µg/mL (≈ 20.9 µM)
MIC M 2 (Pseudomonas aeruginosa; Brain Heart Infusion medium): 62.5 µg/mL (≈ 20.9 µM)
MIC PA 14 (Pseudomonas aeruginosa; Brain Heart Infusion medium): 15.6 µg/mL (≈ 5.22 µM)
MIC PAK (Pseudomonas aeruginosa; Brain Heart Infusion medium): 31.3 µg/mL (≈ 10.5 µM)
MIC WR 5 (Pseudomonas aeruginosa; Brain Heart Infusion medium): 15.6 µg/mL (≈ 5.22 µM)
MIC PAO 1 (Pseudomonas aeruginosa; Mueller Hinton medium): 7.8 µg/mL (≈ 2.61 µM)
MIC GM (geometric mean of the MIC values) (Pseudomonas aeruginosa; Mueller Hinton medium): 12.4 µg/mL
MIC CP 204 (Pseudomonas aeruginosa; Mueller Hinton medium): 15.6 µg/mL (≈ 5.22 µM)
MIC M 2 (Pseudomonas aeruginosa; Mueller Hinton medium): 7.8 µg/mL (≈ 2.61 µM)
MIC PA 14 (Pseudomonas aeruginosa; Mueller Hinton medium): 15.6 µg/mL (≈ 5.22 µM)
MIC PAK (Pseudomonas aeruginosa; Mueller Hinton medium): 15.6 µg/mL (≈ 5.22 µM)
MIC WR 5 (Pseudomonas aeruginosa; Mueller Hinton medium): 15.6 µg/mL (≈ 5.22 µM)
Pseudomonas aeruginosa MICGM (Pseudomonas aeruginosa; geometric mean, 6 different isolates, 24 hours at 37° C.): 4.1 µM
MIC (Acinetobacter baumannii; A. baumannii strain 1 ATCC 17978, Mueller Hinton medium, 24 hours at 37° C.): 0.8 µM (≈ 2.39 µg/mL)
MIC (Acinetobacter baumannii; A. baumannii strain 2 ATCC 19606, Mueller Hinton medium, 24 hours at 37° C.): 1.5 µM (≈ 4.49 µg/mL)
MIC (Acinetobacter baumannii; A. baumannii strain 3, 649 Blood, Mueller Hinton medium, 24 hours at 37° C.): 0.8 µM (≈ 2.39 µg/mL)
MIC (Acinetobacter baumannii; A. baumannii strain 4, 689 Groin, Mueller Hinton medium, 24 hours at 37° C.): 0.8 µM (≈ 2.39 µg/mL)
MIC (Acinetobacter baumannii; A. baumannii strain 5, 759 Gluteus, Mueller Hinton medium, 24 hours at 37° C.): 1.5 µM (≈ 4.49 µg/mL)
MIC (Acinetobacter baumannii; A. baumannii strain 6, 821 Urine, Mueller Hinton medium, 24 hours at 37° C.): 1.5 µM (≈ 4.49 µg/mL)
MIC (Acinetobacter baumannii; A. baumannii strain 7, 884 Axilla, Mueller Hinton medium, 24 hours at 37° C.): 1.5 µM (≈ 4.49 µg/mL)
MIC (Acinetobacter baumannii; A. baumannii strain 8, 899 Perineum, Mueller Hinton medium, 24 hours at 37° C.): 1.5 µM (≈ 4.49 µg/mL)
MIC (Acinetobacter baumannii; A. baumannii strain 9, 964 Throat, Mueller Hinton medium, 24 hours at 37° C.): 1.5 µM (≈ 4.49 µg/mL)
MIC (Acinetobacter baumannii; A. baumannii strain 10, 985 Pleural fluid, Mueller Hinton medium, 24 hours at 37° C.): 0.8 µM (≈ 2.39 µg/mL)
MIC (Acinetobacter baumannii; A. baumannii strain 11, 1012 Sputum, Mueller Hinton medium, 24 hours at 37° C.): 0.8 µM (≈ 2.39 µg/mL)
Antimicrobial Activity MIC against A. baumannii (Acinetobacter baumannii; geometric mean (GM-MIC), 11 clinical isolates): 1.1 µM
MIC GM (geometric mean) (Acinetobacter baumannii; geometric mean of the MIC values from 11 different isolates of Acinetobacter baumannii, Mueller Hinton medium): 1.1 µM (≈ 3.29 µg/mL)
Acinetobacter baumannii MICGM (Acinetobacter baumannii; geometric mean, 11 different isolates, 24 hours at 37° C.): 1.1 µM

Source: patent US9352015B2, “Antimicrobial peptides” (priority 2009, dated 2016)
